Assay results reported in patent publication EP4603105A1, “PHARMACEUTICAL COMPOSITION CONTAINING CYCLIC COMPOUND HAVING SELECTIVE KRAS INHIBITORY EFFECT AGAINST HRAS AND NRAS” (CHUGAI SEIYAKU KABUSHIKI KAISHA, priority 2022, dated 2024).
pIC50: −log10 of the molar value. *1 amine or outer side, *2 acyl side, *3 side chain or, on linkers, in order; H or OH if unused. Where a SMILES comes first, the peptide text is derived from it. Bridges are numbered along the chain shown (N, C = ends). [ ]: non-standard residue; d: D form. The star is where a group is joined. hPhe(3-Cl-4-CF3) = N[C@@H](CCc1ccc(C(F)(F)F)c(Cl)c1)C(=O)O; NPrPhe(4-CF3) = CCCN[C@@H](Cc1ccc(C(F)(F)F)cc1)C(=O)O; X44 = Cc1ccc(C[C@@H](C(=O)[*:2])N(CC2CCC2)[*:1])cc1; NMeGly(cPent) = CN[C@H](C(=O)O)C1CCCC1; NMeD = CN[C@@H](CC(=O)O)C(=O)O; NMeL = CN[C@@H](CC(C)C)C(=O)O; Morpholide = C1CN(*)CCO1; Ac5c = NC1(C(=O)O)CCCC1; Ac4c = NC1(C(=O)O)CCC1; Sar = CNCC(=O)O

Columns and labels:
[1] = target: GDP-bound NRAS wild-type protein (Homo sapiens, UniProt P01111); assay: Binding to NRAS by surface plasmon resonance (SPR), KD and KD ratio to KRAS
Outline: (§1)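 Biotinylated GDP-bound RAS was captured at about 100–300 RU. Running buffer: HBS pH 7.4, 10 mM MgCl2, 10 µM GDP, 1 mM DTT, 0.01% Tween 20, 4% DMSO.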

HRAS wild-type protein = HRAS wild-type protein (Homo sapiens, UniProt P01112); assay: Binding to HRAS by surface plasmon resonance (SPR), KD and KD ratio to KRAS
Outline: as §1

[2] = test system: human lung cancer strain NCI-H441; assay type: cell-based
Outline: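 Step one: dispense the test compound in serial DMSO dilutions. Step three: add the reagent and measure […].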

[3] = ratio of the KD value with respect to GDP-bound NRAS wild-type protein to the KD value with respect to KRAS
[4] = ratio of the KD value with respect to HRAS wild-type protein to the KD value with respect to KRAS
[5] = ratio of KD for GDP-bound NRAS wild-type protein to KD for KRAS
[6] = ratio of KD for HRAS wild-type protein to KD for KRAS

Sequence of GDP-bound NRAS wild-type protein (P01111 whole entry): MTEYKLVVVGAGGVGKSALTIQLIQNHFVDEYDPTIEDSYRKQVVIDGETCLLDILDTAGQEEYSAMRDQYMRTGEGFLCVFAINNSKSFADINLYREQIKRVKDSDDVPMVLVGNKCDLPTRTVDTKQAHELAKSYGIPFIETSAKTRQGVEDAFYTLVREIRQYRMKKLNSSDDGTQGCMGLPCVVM
Sequence of HRAS wild-type protein (P01112 whole entry): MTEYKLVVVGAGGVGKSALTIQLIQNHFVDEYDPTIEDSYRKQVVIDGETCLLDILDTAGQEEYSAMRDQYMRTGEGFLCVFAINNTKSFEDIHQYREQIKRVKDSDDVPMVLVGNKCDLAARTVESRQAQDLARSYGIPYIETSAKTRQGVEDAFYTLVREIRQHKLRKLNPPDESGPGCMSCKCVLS

| Compound | NRAS /KRAS [1, 3] | HRAS /KRAS (HRAS wild-type protein; [4]) | pIC50 [2] | NRAS /KRAS [1, 5] | HRAS /KRAS (HRAS wild-type protein; [6]) | NRAS /KRAS ([1]; ratio of KD value for GDP-bound NRAS wild-type protein to KD value for KRAS (SPR)) | HRAS /KRAS (HRAS wild-type protein; ratio of KD value for HRAS wild-type protein to KD value for KRAS (SPR)) |
| --- | --- | --- | --- | --- | --- | --- | --- |
| CCO[C@@H]1C[C@H]2C(=O)NC3(CC(C)(C)C3)C(=O)N(C)[C@@H](C3CCCC3)C(=O)N(C)[C@H](C(=O)N(C)CC)CC(=O)N(C)[C@H]3CCCCCCc4ccc(cc4)C[C@@H](C(=O)N(C)CC(=O)N[C@@H](CCc4ccc(C(F)(F)F)c(OC)c4)C(=O)N2C1)N1CC/C=C\C[C@@H](C1=O)N(C)C(=O)CN(C)C(=O)[C@H]([C@@H](C)CC)NC3=O [PP2260] | A (a compound having 10 or more and less than 20 is denoted as A) | A (a compound having 10 or more and less than 20 is denoted as A) | 8.72 | – | – | – | – |
| CCO[C@@H]1C[C@H]2C(=O)NC3(CC(C)(C)C3)C(=O)N(C)[C@@H](C(CC)CC)C(=O)N(C)[C@H](C(=O)N(C)C)CC(=O)N(C)[C@@H](CC3CC3)C(=O)N[C@@H]([C@@H](C)CC)C(=O)N(C)CC(=O)N(C)[C@H]3C/C=C\CCN(C3=O)[C@@H](Cc3ccc(C(F)(F)F)cc3)C(=O)N(C)CC(=O)N[C@@H](CCc3ccc(C(F)(F)F)c(OC)c3)C(=O)N2C1 [PP2155] | A (a compound having 10 or more and less than 20 is denoted as A) | B (a compound having 3 or more and less than 10 is denoted as B) | 7.97 | – | – | – | – |
| CC[C@H](C)[C@@H]1NC(=O)[C@@H]2CCC/C=C/c3ccc(cc3)C[C@@H](C(=O)N(C)CC(=O)N[C@@H](CCc3ccc(Cl)c(Cl)c3)C(=O)N3CCC[C@H]3C(=O)NC3(CC(C)(C)C3)C(=O)N(C)[C@@H](C3CCCC3)C(=O)N(C)[C@H](C(=O)N(C)CC)CC(=O)N2C)N2CC/C=C\C[C@@H](C2=O)N(C)C(=O)CN(C)C1=O [PP2601] | – | – | 8.05 | A (a compound having 10 or more and less than 20 is denoted as A) | A (a compound having 10 or more and less than 20 is denoted as A) | – | – |
| CC[C@H](C)[C@@H]1NC(=O)[C@H](CC(C)C)N(C)C(=O)C[C@@H](C(=O)N2CCOCC2)N(C)C(=O)[C@H](C2CCCC2)N(C)C(=O)C2(CCCC2)NC(=O)[C@@H]2CCCN2C(=O)[C@H](CCc2ccc(C(F)(F)F)c(Cl)c2)NC(=O)CN(C)C(=O)[C@H](Cc2ccc(C)cc2)N(CC2CCC2)C(=O)CN(C)C(=O)CN(C)C1=O [PP0095] ([NMeL]I[Sar][Sar][X44][Sar][hPhe(3-Cl-4-CF3)]P[Ac5c][NMeGly(cPent)][NMeD]-Morpholide; lactam N-11) | – | – | 7.74 | C (A compound having a KD ratio of 0.1 or more and less than 3 is denoted as C) | C (A compound having a KD ratio of 0.1 or more and less than 3 is denoted as C) | – | – |
| CCC[C@H]1C(=O)N[C@@H]([C@@H](C)CC)C(=O)N(C)CC(=O)N(C)[C@H]2C/C=C\CCN(C2=O)[C@@H](Cc2ccc(C(F)(F)F)cc2)C(=O)N(C)CC(=O)N[C@@H](CCc2ccc(C(F)(F)F)c(Cl)c2)C(=O)N2C[C@H](OCC)C[C@H]2C(=O)NC2(CC(C)(C)C2)C(=O)N(C)[C@@H](C2CCCC2)C(=O)N(C)[C@H](C(=O)N(C)C)CC(=O)N1C [PP1748] | – | – | 8.51 | – | – | A (a compound having 10 or more and less than 20 is denoted as A) | B (a compound having 3 or more and less than 10 is denoted as B) |
| CCCN1C(=O)CN(C)C(=O)CN(C)C(=O)[C@H]([C@@H](C)CC)NC(=O)[C@H](CC(C)C)N(C)C(=O)C[C@@H](C(=O)N2CCOCC2)NC(=O)[C@H](C2CCCC2)N(C)C(=O)C2(CCC2)NC(=O)[C@@H]2CCCN2C(=O)[C@H](CCc2ccc(C(F)(F)F)c(Cl)c2)NC(=O)CN(C)C(=O)[C@@H]1Cc1ccc(C(F)(F)F)cc1 [PP0320] ([NMeL]I[Sar][Sar][NPrPhe(4-CF3)][Sar][hPhe(3-Cl-4-CF3)]P[Ac4c][NMeGly(cPent)]D-Morpholide; lactam N-11) | – | – | 7.03 | B (a compound having 3 or more and less than 10 is denoted as B) | B (a compound having 3 or more and less than 10 is denoted as B) | – | – |
